Patent US6503881B2 (priority 1996, dated 2003)
Like-named read-outs stand apart in the source and are kept apart here.

Key:
a bacterial strain = format: cell-based
K. pneumoniae = format: cell-based; details: for MIC Alone: agent alone; for MBI 26 MIC, +Erythro.: in combination with erythromycin

Substance: KWKSFIKKLTSAAKKVVTTAKPLISS [MBI 26]
- killing in time kill assay (a bacterial strain): greater killing than either peptide or antibiotic agent alone
- MIC Alone (K. pneumoniae; K. pneumoniae KP001): 16 µg/mL
- MBI 26 MIC, +Erythro. (K. pneumoniae; K. pneumoniae KP001): 8 µg/mL
- MIC Alone (K. pneumoniae; K. pneumoniae KP002): 64 µg/mL
- MBI 26 MIC, +Erythro. (K. pneumoniae; K. pneumoniae KP002): 32 µg/mL

Substance: W R I W K P K W R L P K W [MBI 11D18CN]
- MIC (bacteria; A. calcoaceticus AC003): 32 µg/mL
- MIC (bacteria; E. cloacae ECL009): 64 µg/mL
- MIC (bacteria; E. coli ATCC 25922, agarose dilution assay): 16 µg/mL
- MIC (bacteria; E. coli ECO002): 4 µg/mL
- MIC (bacteria; E. coli ESS, agarose dilution assay): 2 µg/mL
- MIC (bacteria; E. coli NCTC 10418, agarose dilution assay): 2 µg/mL
- MIC (bacteria; E. faecalis EFS002): 32 µg/mL
- MIC (bacteria; E. faecium ATCC 29212, agarose dilution assay): 8 µg/mL
- MIC (bacteria; E. faecium EFM003): 2 µg/mL
- MIC (bacteria; H. influenzae HIN002): >128 µg/mL
- MIC (bacteria; K. pneumoniae KP002): 64 µg/mL
- MIC (bacteria; P. aeruginosa ATCC 27853, agarose dilution assay): 128 µg/mL
- MIC (bacteria; P. aeruginosa NCTC 10662, agarose dilution assay): 128 µg/mL
- MIC (bacteria; P. aeruginosa PA006): >128 µg/mL
- MIC (bacteria; P. mirabilis PM003): >128 µg/mL
- MIC (bacteria; P. vulgaris ATCC 13315, agarose dilution assay): 32 µg/mL
- MIC (bacteria; P. vulgaris SBPV1): 32 µg/mL
- MIC (bacteria; S. aureus ATCC 29213, agarose dilution assay): 0.5 µg/mL
- MIC (bacteria; S. aureus MRSA9, agarose dilution assay): 2 µg/mL
- MIC (bacteria; S. aureus MRSA13, agarose dilution assay): 8 µg/mL
- MIC (bacteria; S. aureus MRSA17, agarose dilution assay): 2 µg/mL
- MIC (bacteria; S. aureus SA010): 4 µg/mL
- MIC (bacteria; S. aureus SA206, agarose dilution assay): 4 µg/mL
- MIC (bacteria; S. epidermidis SE010): 2 µg/mL
- MIC (bacteria; S. maltophilia SMA003): 16 µg/mL
- MIC (bacteria; S. marcescens SBSM2): >128 µg/mL
- MIC (bacteria; S. marcescens SM76, agarose dilution assay): >128 µg/mL
- MIC (bacteria; S. marcescens SM82, agarose dilution assay): >128 µg/mL
- MIC (bacteria; S. pneumoniae 406LE8, agarose dilution assay): 64 µg/mL
- MIC (bacteria; S. pneumoniae 60120, agarose dilution assay): 128 µg/mL
- MIC (bacteria; S. pneumoniae ATCC 49619, agarose dilution assay): 64 µg/mL
- MIC (bacteria; S. pneumoniae SBSPN3): 64 µg/mL
- MIC (bacteria; S. pyogenes SPY003): 32 µg/mL
